# Measured values taken from patent US20080051417A1, “Uses of selective cyclooxygenase-1 inhibitors” (priority 2006, published 2008).
# Where two headings read alike, the source gives them in different places.
# Tests used:
# [1] = test system: 15-epi-LPXA4; details: cited from earlier work; for effect on pioglitazone+atorvastatin effect on myocardial 15-epi-LPXA4 levels: rats treated with pioglitazone+atorvastatin
# [2] = test system: 15-epi-LPXA4; experiment: Myocardial 15-epi-LPXA4 levels (ELISA) in treated rats; format: in vivo, Sprague-Dawley rats; details: for effect on myocardial 15-epi-LPXA4 levels: 8 h before harvest; for effect on pioglitazone+atorvastatin induction of myocardial 15-epi-LPXA4: pioglitazone+atorvastatin pretreated rats
# Protocol: (§1) Rats received the following treatment (4 rats in each group): 1) i.v. saline and oral water; 2) i.v. saline and oral aspirin 10 mg/kg; 3) i.v. saline and oral aspirin 50 mg/kg; 4) i.v. LPS and oral water; 5) i.v. LPS and oral aspirin 10 mg/kg; 6) i.v. LPS and oral aspirin 50 mg/kg; 7) i.v. LPS and oral aspirin 200 mg/kg; 8) oral pioglitazone (10 mg/kg/d) and atorvastatin (10 mg/kg/d); 9) oral pioglitazone+atorvastatin and aspirin 10 mg/kg; 10) oral pioglitazone+atorvastatin and aspirin 50 mg/kg; 11) oral pioglitazone+atorvastatin and aspirin 50 mg/kg and i.v. 1400 W, a specific iNOS inhibitor; or 12) oral pioglitazone+atorvastatin, oral water, and i.v. 1400 W, a specific iNOS inhibitor. LPS (10 mg/kg) was dissolved in 1 ml of saline and was administered intravenously 8 hours before harvesting the hearts. Aspirin was dissolved in water and administered by oral gavage 8 hours before harvesting the hearts. Atorvastatin and pioglitazone were administered by oral gavage once daily for 3 days; last dose was administered 16 hours before harvesting the hearts. 1400 W (1 mg/kg) was administered i.v. 15 minutes before harvesting the hearts. All hearts were analyzed for myocardial 15-epi-LPXA4, lipoxin A4, 6-keto-PGF1α (the stable metabolite of PGI2) and PGE2 levels.
# (§2) The hearts were rapidly explanted, rinsed in cold PBS (pH 7.4), containing 0.16 mg/ml heparin to remove red blood cells and clots, frozen in liquid nitrogen and stored at −70° C. For 15-epi-LPXA4 and lipoxin A4 determination, myocardial samples from the anterior left ventricular wall were homogenized in ethanol (5 ml/g) and centrifuged at 10,000 g X15 min at 4° C. The supernatant was diluted with water and acidified to pH 3.5 with 1N HCl. The sample was loaded into C-18 Sep-Pak light column (Waters Corporation, Milford, Mass.) and washed with 1 ml of water followed by 1 ml of petroleum ether. The sample was eluted with 2 ml of methyl formate. The methyl formate was evaporated with N2 and the residue was dissolved in extraction buffer. The manufacturer instruction of the ELISA Kits was followed. For myocardial 6-keto-PGF1α and PGE2 levels myocardial samples were homogenized in RIPA lysis buffer with 10% proteinase inhibitor (Sigma) and centrifuged. The supernatants were collected and stored on ice. Measurement of 6-keto-PGF1α (the stable hydrolysis product of PGI2) and PGE2 were performed as instructed by the manufacturer.
# [3] = test system: lipoxin A4; experiment: Myocardial lipoxin A4 levels (ELISA) in treated rats; format: in vivo, Sprague-Dawley rats; details: for effect on pioglitazone+atorvastatin effect on myocardial lipoxin A4: pioglitazone+atorvastatin pretreated rats
# Protocol: as §1, §2
# [4] = test system: 6-keto-PGF1α (the stable metabolite of PGI2); experiment: Myocardial 6-keto-PGF1α levels (ELISA) in treated rats; format: in vivo, Sprague-Dawley rats; details: for effect on pioglitazone+atorvastatin increase of myocardial 6-keto-PGF1α: pioglitazone+atorvastatin pretreated rats
# Protocol: as §1, §2
# [5] = test system: PGE2; experiment: Myocardial PGE2 levels (ELISA) in treated rats; format: in vivo, Sprague-Dawley rats; details: for myocardial PGE2 levels: mean ±SEM; for effect on pioglitazone+atorvastatin increase of myocardial PGE2: pioglitazone+atorvastatin pretreated rats
# Protocol: as §1, §2
# [6] = test system: COX2; experiment: Biotin switch assay and COX2 immunoblot of myocardial samples; format: in vivo, rats; details: compared with the pioglitazone+atorvastatin group
# Protocol: S-nitrosylation of COX2 was determined by the biotin switch method as previously described (Atar et al., 2006). Briefly, myocardial samples from the left ventricular wall of rats treated with lipopolysaccharide (group 4) and pioglitazone+atorvastain (group 8) were homogenized in HEN buffer (25 mM HEPES (pH 7.7)-0.1 mM EDTA-0.01 mM necuproine). The supernatant containing membrane fragments and the cytosolic protein were recovered. The samples were incubated for 30 mins at 4° C. with blocking solution containing HEN buffer, 0.1% SDS and 20 mM N-ethylmaleimide (NEM) to block free thiols.
# Lysates were centrifuged at 16,000×g for 10 min at 4° C. Cold acetone was added to precipitate the proteins. The pellets were resuspended in HEN buffer with 1% SDS, with 20 mM sodium ascorbate added to decompose the SNO bonds. The resulting free thiols in the sample were reacted with 0.05 mM biotinylating agent, biocytin (MPB) for 30 mins at room temperature. The excess MPB was removed by additional protein precipitation in cold acetone. COX2 was immunoprecipitated with anti-COX2 polyclonal antibody. […] The biotinylated COX2 protein was detected with horseradish peroxidase-linked streptavidin. […] The signal densities of the biotinylated COX2 and total COX2 were quantified by an image-scanning densitometer and the ratio of the densities was calculated for each animal.
# [7] = Infarct size after 30 minute coronary artery occlusion; format: in vivo; details: aspirin 20 mg/kg i.v. at end of 30 minute coronary artery occlusion; 3-day atorvastatin pretreatment
# [8] = test system: 15-epi-LXA4; details: normal human volunteers, cited from earlier work
# [9] = test system: COX2; details: intravenous 1400 W, same dose as herein; 3-day pretreatment with atorvastatin 10 mg/kg/d; cited from earlier work
compound,measurement,setting,value
Cc1onc(-c2ccccc2)c1-c1ccc(S(N)(=O)=O)cc1 [valdecoxib],effect on pioglitazone+atorvastatin effect on myocardial 15-epi-LPXA4 levels,[1],blocked
CC(C)c1c(C(=O)Nc2ccccc2)c(-c2ccccc2)c(-c2ccc(F)cc2)n1CC[C@@H](O)C[C@@H](O)CC(=O)O [atorvastatin],effect on myocardial 15-epi-LPXA4 levels,"[1]; 3 days oral 5 and 10 mg/kg/d, but not 2 mg/kg/d, each drug alone",increased
CC(c1cc2ccccc2s1)N(O)C(N)=O (stereo not shown) [zileuton],effect on pioglitazone+atorvastatin effect on myocardial 15-epi-LPXA4 levels,[1],blocked
lipopolysaccharide [LPS],effect on myocardial 15-epi-LPXA4 levels,[2]; LPS 10 mg/kg i.v. alone,increased
same,effect on myocardial lipoxin A4 levels,[3]; LPS alone,small increase
same,myocardial 6-keto-PGF1α levels,"[4]; LPS alone, p<0.001 versus control, mean ±SEM",80.56 ± 0.21 pg/mg
same,myocardial PGE2 levels,"[5]; LPS alone, p<0.001 versus control",70.31±0.26
same,total COX2 immunoblot signal intensity,[6],stronger
CC(=O)Oc1ccccc1C(=O)O [Aspirin],effect on myocardial 15-epi-LPXA4 levels,"[2]; aspirin alone, oral 10 mg/kg",no effect
same,effect on myocardial 15-epi-LPXA4 levels,"[2]; aspirin alone, oral 50 mg/kg",no effect
same,effect on LPS induction of myocardial 15-epi-LPXA4,"[2]; i.v. LPS + oral aspirin 10 mg/kg, p=0.08 versus LPS alone",did not significantly alter
same,effect on LPS induction of myocardial 15-epi-LPXA4,"[2]; i.v. LPS + oral aspirin 50 mg/kg, p<0.001 versus LPS alone",augmented
same,effect on LPS induction of myocardial 15-epi-LPXA4,"[2]; i.v. LPS + oral aspirin 200 mg/kg, p<0.001 versus LPS alone",augmented
same,effect on pioglitazone+atorvastatin induction of myocardial 15-epi-LPXA4,[2]; aspirin 10 mg/kg,attenuated
same,effect on pioglitazone+atorvastatin induction of myocardial 15-epi-LPXA4,[2]; aspirin 50 mg/kg,completely blocked
same,effect on infarct size limiting effect of atorvastatin,[7],completely abrogated
same,effect on LPS effect on myocardial lipoxin A4,[3]; LPS + aspirin 10 mg/kg,did not alter
same,effect on LPS effect on myocardial lipoxin A4,[3]; LPS + aspirin 50 mg/kg,did not alter
same,effect on LPS effect on myocardial lipoxin A4,"[3]; LPS + aspirin 200 mg/kg, p<0.001 versus each of the other groups",augmented
same,effect on myocardial lipoxin A4,"[3]; aspirin alone, 10 mg/kg",did not affect
same,effect on myocardial lipoxin A4,"[3]; aspirin alone, 50 mg/kg",did not affect
same,effect on pioglitazone+atorvastatin effect on myocardial lipoxin A4,[3]; aspirin alone,not attenuated
same,myocardial 6-keto-PGF1α levels,"[4]; LPS + aspirin 10 mg/kg, p<0.001 versus LPS alone, mean ±SEM",76.70 ± 0.25 pg/mg
same,myocardial 6-keto-PGF1α levels,"[4]; LPS + aspirin 50 mg/kg, p<0.001 versus LPS alone, mean ±SEM",27.66 ± 0.23 pg/mg
same,myocardial 6-keto-PGF1α levels,"[4]; LPS + aspirin 200 mg/kg, p<0.001 versus LPS alone, mean ±SEM",25.39 ± 0.22 pg/mg
same,myocardial 6-keto-PGF1α levels,"[4]; aspirin alone 10 mg/kg, p=0.48 versus control",22.35 pg/mg
same,myocardial 6-keto-PGF1α levels,"[4]; aspirin alone 50 mg/kg, p=0.001 versus control, mean ±SEM",20.97 ± 0.51 pg/mg
same,effect on pioglitazone+atorvastatin increase of myocardial 6-keto-PGF1α,[4]; aspirin 10 mg/kg,attenuated
same,effect on pioglitazone+atorvastatin increase of myocardial 6-keto-PGF1α,[4]; aspirin 50 mg/kg,attenuated
same,myocardial PGE2 levels,"[5]; LPS + aspirin 10 mg/kg, p<0.001 versus LPS alone",48.70 ± 3.02 pg/mg
same,myocardial PGE2 levels,"[5]; LPS + aspirin 50 mg/kg, p<0.001 versus LPS alone",41.68 ± 0.24 pg/mg
same,myocardial PGE2 levels,"[5]; LPS + aspirin 200 mg/kg, p<0.001 versus LPS alone",33.72 ± 0.46 pg/mg
same,myocardial PGE2 levels,"[5]; aspirin alone 10 mg/kg, not significant versus control",34.48 ± 0.21 pg/mg
same,myocardial PGE2 levels,"[5]; aspirin alone 50 mg/kg, not significant versus control",33.68 ± 0.24 pg/mg
same,effect on pioglitazone+atorvastatin increase of myocardial PGE2,[5]; aspirin 10 mg/kg,attenuated
same,effect on pioglitazone+atorvastatin increase of myocardial PGE2,[5]; aspirin 50 mg/kg,completely blocked
same,effect on 15-epi-LXA4,[8]; 650 mg/d,did not increase
same,blood levels of 15ELX at 81 mg/d compared with 325 mg/d,[8],greater
CC(=N)NCc1cccc(CN)c1 [1400 W],effect on pioglitazone+atorvastatin induction of myocardial 15-epi-LPXA4,[2]; 1400 W 1 mg/kg i.v. alone,partially blocked
same,effect on pioglitazone+atorvastatin effect on myocardial lipoxin A4,[3]; 1400 W alone,not attenuated
same,effect on augmentation of COX2 activity by atorvastatin,[9],blocked
same,effect on pioglitazone+atorvastatin increase of myocardial 6-keto-PGF1α,[4]; 1400 W,attenuated
same,effect on pioglitazone+atorvastatin increase of myocardial PGE2,[5]; 1400 W,completely blocked
